The text below walks through data of patent US4033960A, “2-Mercaptoquinoxaline-di-N-oxide products and a method for their preparation” (Bayer Aktiengesellschaft, priority 1973, dated 1977).

≈ marks a conversion by molar mass, not a printed value.

Common to all, as to test: Minimum inhibitory concentration by the plate test (agar)
Holding throughout (assay type): cell-based

For one test, the system named is Escherichia coli A 261. As to conditions: 0-10 colonies formed, pH 7.4; for Minimum inhibitory concentration: per ml of nutrient medium, 5,000 cells/10 ml. The method, then:
(§1) […] The bacteria to be tested are cast, together with the nutrient medium and the test substance distributed in the agar, into a Petri dish. The number of bacterial cells is 5,000/10 ml of nutrient medium. The minimum inhibitory concentration is the concentration at which 0-10 colonies are formed.

The subject of test [1] is Staphylococcus aureus 133. As to conditions: per ml of nutrient medium, 5,000 cells/10 ml, 0-10 colonies formed, pH 7.4. The method, then: as §1
The next test concerns Klebsiella 8085. The settings on record: per ml of nutrient medium, 5,000 cells/10 ml, 0-10 colonies formed, pH 7.4. The method, then: as §1
The test system of another test is Escherichia coli C 165. As to conditions: 0-10 colonies formed, pH 7.4; for Minimum inhibitory concentration: per ml of nutrient medium, 5,000 cells/10 ml. The method, then:
as §1

For another test, the system named is Proteus vulgaris 1017. As to conditions: per ml of nutrient medium, 5,000 cells/10 ml, 0-10 colonies formed, pH 7.4. The method, then:
as §1

As a reminder, the MIC is the smallest concentration in the dilution series that meets the test's criterion for growth inhibition. Read a high MIC as a less susceptible organism.

In the case of “6(7)-chloro-2-mercapto-3-methyl-quinoxaline-di-N-oxide [Example 2]”, the Minimum inhibitory concentration was 128 µg/mL with Escherichia coli A 261; 128 µg/mL in test [1]; 128 µg/mL with Klebsiella 8085; 128 µg/mL with Escherichia coli C 165; 64 to 128 µg/mL in the test on Proteus vulgaris 1017.

With “6(7)-bromo-2-mercapto-3-methyl-quinoxaline-di-N-oxide [Example 4]”, the Minimum inhibitory concentration (in the test on Escherichia coli A 261; in test [1]; in the test with Escherichia coli C 165) was 100 µg/mL each time.

As to “6(7)-fluoro-2-mercapto-3-methyl-quinoxaline-di-N-oxide [Example 3]”, the Minimum inhibitory concentration in the test on Escherichia coli A 261 was 128 µg/mL; in test [1], 128 µg/mL; in the test with Escherichia coli C 165, 64 to 128 µg/mL; in the test with Proteus vulgaris 1017, 128 µg/mL.

“6(7)-methoxy-2-mercapto-3-methyl-quinoxaline-di-N-oxide [Example 7]”: the Minimum inhibitory concentration was 128 µg/mL in the test on Escherichia coli A 261, 128 µg/mL in test [1], 64 to 128 µg/mL in the test with Escherichia coli C 165 and 128 µg/mL with Proteus vulgaris 1017.

In the case of `Cc1c(S)[n+]([O-])c2ccccc2[n+]1[O-]` [Example 1, 2-Mercapto-3-methylquinoxaline-di-N-oxide], the minimal inhibitory concentration (MIC) in the test with Escherichia coli A 261 (A261, per ml of nutrient medium, 5,000 cells/10 ml) is 50 to 100 µg/mL (≈ 240 to 480 µM); in test [1], 100 µg/mL (≈ 480 µM); against Klebsiella 8085, 10 µg/mL (≈ 48 µM); in the test on Escherichia coli C 165 (C165, per ml of nutrient medium, 5,000 cells/10 ml), 50 to 100 µg/mL (≈ 240 to 480 µM); against Proteus vulgaris 1017, 100 µg/mL (≈ 480 µM).
